For 5 molecules, IC50 results are on record in US9440978B2, “Imidazolo-, oxazolo-, and thiazolopyrimidine modulators of TRPV1” (Janssen Pharmaceutica NV, priority 2007, dated 2016).

As usually defined, the IC50 is the midpoint of a concentration-inhibition curve.

In one experiment the target is T1, rat TRPV1 (Rattus norvegicus, UniProt O35433).
T1 construct: expressed in transfected cells; host or cells: HEK293
As to the kind of experiment: Block of capsaicin-induced Ca2+ influx, rat assay (rTRPV1/HEK293, FLIPR). In kind it is cell-based. In a few lines: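 HEK293 cells expressing rat TRPV1, Fluo-3 loaded, preincubated 30 min with compound in 20 μM Ca2+ buffer (serial three-fold dilutions, usually from 10 μM, duplicate). Capsaicin-evoked fluorescence change over 100 s measured on FLIPR; IC50 by non-linear regression, averaged across runs.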

A further experiment deals with T2, human TRPV1 (Homo sapiens, UniProt Q8NER1).
T2 construct: expressed in transfected cells; host or cells: HEK293
As to the kind of experiment: Block of capsaicin-induced Ca2+ influx, human assay (hTRPV1/HEK293, FLIPR). Particulars: HEK293 cells transfected with human TRPV1; 150 nM capsaicin challenge; mean; > value = solubility limit in assay medium. In kind it is cell-based.

The mark [1] stands for this setting: HEK293 cells transfected with rat TRPV1, capsaicin challenge, mean, > value = solubility limit in assay medium, read-out: Rat IC50.

SMILES strings stand for the structures. Structures can show the parent of a compound that is named as a salt. Where two headings read alike, the source gives them in different places.

T1 sequence (O35433 whole entry): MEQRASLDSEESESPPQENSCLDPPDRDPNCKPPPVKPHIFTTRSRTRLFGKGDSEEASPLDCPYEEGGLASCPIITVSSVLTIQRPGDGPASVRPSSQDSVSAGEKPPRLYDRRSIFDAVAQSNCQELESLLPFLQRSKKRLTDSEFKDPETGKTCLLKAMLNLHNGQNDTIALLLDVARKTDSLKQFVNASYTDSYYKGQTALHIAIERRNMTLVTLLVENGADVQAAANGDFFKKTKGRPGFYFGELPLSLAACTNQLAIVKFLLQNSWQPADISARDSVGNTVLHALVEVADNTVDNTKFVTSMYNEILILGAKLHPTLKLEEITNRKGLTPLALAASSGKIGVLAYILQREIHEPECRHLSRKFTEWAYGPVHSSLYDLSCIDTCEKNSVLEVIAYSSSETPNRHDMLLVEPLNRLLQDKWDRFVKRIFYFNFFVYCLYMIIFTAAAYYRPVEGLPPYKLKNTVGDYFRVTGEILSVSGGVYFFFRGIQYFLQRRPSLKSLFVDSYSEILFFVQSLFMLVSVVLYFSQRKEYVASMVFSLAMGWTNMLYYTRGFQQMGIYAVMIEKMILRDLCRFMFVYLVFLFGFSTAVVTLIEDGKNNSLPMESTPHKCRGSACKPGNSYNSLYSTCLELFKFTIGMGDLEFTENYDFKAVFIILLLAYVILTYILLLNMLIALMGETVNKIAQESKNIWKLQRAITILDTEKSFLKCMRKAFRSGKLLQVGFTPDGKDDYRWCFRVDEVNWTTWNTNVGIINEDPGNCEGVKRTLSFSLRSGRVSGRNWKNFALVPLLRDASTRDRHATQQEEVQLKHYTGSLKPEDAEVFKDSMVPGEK
T2 sequence (Q8NER1 whole entry): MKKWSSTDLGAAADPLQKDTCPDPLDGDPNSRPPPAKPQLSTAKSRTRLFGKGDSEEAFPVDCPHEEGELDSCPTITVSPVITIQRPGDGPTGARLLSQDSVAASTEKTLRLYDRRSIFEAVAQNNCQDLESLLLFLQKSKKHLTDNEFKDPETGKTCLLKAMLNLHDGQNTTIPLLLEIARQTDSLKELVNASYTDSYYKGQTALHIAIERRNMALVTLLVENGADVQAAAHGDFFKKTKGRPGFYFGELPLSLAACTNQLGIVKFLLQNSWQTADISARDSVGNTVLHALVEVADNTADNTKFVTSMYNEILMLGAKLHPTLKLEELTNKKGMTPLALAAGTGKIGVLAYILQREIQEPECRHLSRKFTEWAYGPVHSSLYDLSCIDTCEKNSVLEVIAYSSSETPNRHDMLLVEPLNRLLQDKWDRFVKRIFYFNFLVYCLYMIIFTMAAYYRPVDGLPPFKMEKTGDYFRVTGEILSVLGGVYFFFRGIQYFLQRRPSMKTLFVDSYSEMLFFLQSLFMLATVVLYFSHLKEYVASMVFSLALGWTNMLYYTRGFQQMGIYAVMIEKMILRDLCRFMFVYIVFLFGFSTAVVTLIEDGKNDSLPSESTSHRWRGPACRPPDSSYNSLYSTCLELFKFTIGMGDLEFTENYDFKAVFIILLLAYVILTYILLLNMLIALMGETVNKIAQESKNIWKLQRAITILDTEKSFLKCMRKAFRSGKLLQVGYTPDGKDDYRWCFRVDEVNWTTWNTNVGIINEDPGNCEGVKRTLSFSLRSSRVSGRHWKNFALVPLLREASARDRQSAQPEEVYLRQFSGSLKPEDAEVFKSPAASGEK

Regarding `CC(C)[Si](Sc1ccccc1Cc1nc2c(Nc3ccc(C(F)(F)F)cc3)ncnc2s1)(C(C)C)C(C)C` [Example 104, (4-Trifluoromethyl-phenyl)-[2-(2-triisopropylsilanylsulfanyl-benzyl)-thiazolo[5,4-d]pyrimidin-7-yl]-amine], the IC50 at rat TRPV1 was 0.069 µM; at human TRPV1, 0.125 µM.

As to `FC(F)(F)c1ccc(Nc2ncnc3sc(Cc4ccccc4-c4ccccc4)nc23)cc1` [Example 105, (2-Biphenyl-2-ylmethylthiazolo[5,4-d]pyrimidin-7-yl)-(4-trifluoromethylphenyl)-amine], the IC50 on rat TRPV1 (setting [1]) worked out at 1.23 µM; on human TRPV1 it was 1.64 µM.

Regarding `Oc1ccccc1-c1ccccc1Cc1nc2c(Nc3ccc(C(F)(F)F)cc3)ncnc2s1` [Example 106, 2′-[7-(4-Trifluoromethylphenylamino)-thiazolo[5,4-d]pyrimidin-2-ylmethyl]-biphenyl-2-ol], the figures for the IC50 on rat TRPV1 (setting [1]) and against human TRPV1 were 0.343 µM and 1.01 µM, respectively.

Turning to `NC(=O)c1ccc(-c2ccccc2Cc2nc3c(Nc4ccc(C(F)(F)F)cc4)ncnc3s2)cc1` [Example 107, 2′-[7-(4-Trifluoromethylphenylamino)-thiazolo[5,4-d]pyrimidin-2-ylmethyl]-biphenyl-4-carboxylic acid amide], the half-maximal inhibitory concentration (IC50) on rat TRPV1 (setting [1]) was 1.53 µM; against human TRPV1, 6.96 µM.

Regarding `FC(F)(F)c1ccc(Nc2ncnc3[nH]c(Cc4c(Cl)cccc4Cl)nc23)cc1` [Example 109, [8-(2,6-Dichloro-benzyl)-9H-purin-6-yl]-(4-trifluoromethyl-phenyl)-amine trifluoroacetic acid salt], the half-maximal inhibitory concentration (IC50) on rat TRPV1 (setting [1]) is 0.116 µM; on human TRPV1, 0.716 µM.
